# Measurements reported in patent US6737383B1, “Herbicidal oxadiazolidines” (priority 1999, dated 2004).
# Key:
# bedstraw = test: Test B pre/postemergence bedstraw; assay type: in vivo, Galium aparine
# Procedure, shortened: (§1)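 Test chemicals in a non-phytotoxic solvent mixture with surfactant were sprayed preemergence onto planted seeds and postemergence onto plants 2 to 18 cm tall (1- to 4-leaf stage). After twelve to sixteen days in a greenhouse, injury was visually rated against untreated controls from 0 (no effect) to 10 (complete control).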
# blackgrass = test: Test B pre/postemergence blackgrass; assay type: in vivo, Alopecurus myosuroides
# Procedure, shortened: as §1
# surinam grass = test: Test B pre/postemergence surinam grass; assay type: in vivo, Brachiaria decumbens
# Procedure, shortened: as §1
# cocklebur = test: Test B pre/postemergence cocklebur; assay type: in vivo, Xanthium strumarium
# Procedure, shortened: as §1
# corn = test: Test B pre/postemergence corn; assay type: in vivo, Zea mays
# Procedure, shortened: as §1
# giant foxtail = test: Test B pre/postemergence giant foxtail; assay type: in vivo, Setaria faberii
# Procedure, shortened: as §1
# morningglory = test: Test B pre/postemergence morningglory; assay type: in vivo, Ipomoea hederacea
# Procedure, shortened: as §1
# pigweed = test: Test B pre/postemergence pigweed; assay type: in vivo, Amaranthus retroflexus
# Procedure, shortened: as §1
# rape = test: Test B pre/postemergence rape; assay type: in vivo, Brassica napus
# Procedure, shortened: as §1
# soybean = test: Test B pre/postemergence soybean; assay type: in vivo, Glycine max
# Procedure, shortened: as §1
# sugar beet = test: Test B pre/postemergence sugar beet; assay type: in vivo, Beta vulgaris
# Procedure, shortened: as §1
# velvetleaf = test: Test B pre/postemergence velvetleaf; assay type: in vivo, Abutilon theophrasti
# Procedure, shortened: as §1
# wheat = test: Test B pre/postemergence wheat; assay type: in vivo, Triticum aestivum
# Procedure, shortened: as §1
# wild oat = test: Test B pre/postemergence wild oat; assay type: in vivo, Avena fatua
# Procedure, shortened: as §1
# rice = test: Test B flood test rice; assay type: in vivo, Oryza sativa
# Procedure, shortened: (§2)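 Plants were grown to the 2-leaf stage before treatment with test chemical, then held in a greenhouse for twelve to sixteen days. Injury was visually rated against untreated controls on a 0–10 scale, where 0 is no effect and 10 is complete control.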
# smallflower flatsedge = test: Test B flood test smallflower flatsedge; assay type: in vivo, Cyperus difformis
# Procedure, shortened: as §2
# [1] = Preemergence, Rate 62 g/ha, scale of 0 to 10 where 0 is no effect and 10 is complete control
# [2] = Preemergence, Rate 125 g/ha, 0 is no effect, 10 is complete control
# [3] = Preemergence, Rate 250 g/ha, scale 0 to 10, 0 is no effect, 10 is complete control
# [4] = Preemergence, Rate 500 g/ha, scale of 0 to 10 where 0 is no effect and 10 is complete control
# [5] = Rate 62 g/ha, Postemergence, scale of 0 to 10 where 0 is no effect and 10 is complete control
# [6] = Rate 125 g/ha, Postemergence, scale 0 to 10
# [7] = Rate 500 g/ha, Postemergence, scale 0 to 10
# [8] = Rate 62 g/ha, headed Pre-emergence (flood test species), scale 0 to 10 (0 no effect, 10 complete control)
# [9] = Rate 125 g/ha, Pre-emergence, flood test species, scale 0 to 10 where 0 is no effect and 10 is complete control
# [10] = Rate 250 g/ha, Pre-emergence, flood-test species, scale 0 to 10, 0 is no effect, 10 is complete control
smiles,measurement,setting,value
Cc1ccccc1-n1c(=O)on(C(=O)N(c2ccc(Cl)cc2F)C(C)C)c1=O [Compound 195],Bedstraw plant response rating,bedstraw; [1],0
same,Bedstraw plant response rating (0 to 10 scale),bedstraw; [2],0
same,Bedstraw plant response rating,bedstraw; [3],0
same,"Plant response rating, Bedstraw",bedstraw; [4],2
same,Bedstraw plant response rating,bedstraw; [5],2
same,Bedstraw plant response rating,bedstraw; [6],2
same,Bedstraw plant response rating,bedstraw; [7],7
same,Blackgrass plant response rating,blackgrass; [1],0
same,Blackgrass plant response rating (0 to 10 scale),blackgrass; [2],1
same,Blackgrass plant response rating,blackgrass; [3],3
same,"Plant response rating, Blackgrass",blackgrass; [4],6
same,Blackgrass plant response rating,blackgrass; [5],0
same,Blackgrass plant response rating,blackgrass; [6],3
same,"Plant response rating (0 to 10; 0 is no effect, 10 is complete control), Blackgrass","blackgrass; Rate 250 g/ha, Postemergence",5
same,Blackgrass plant response rating,blackgrass; [7],6
same,B. signalgrass plant response rating,surinam grass; [1],0
same,B. signalgrass plant response rating (0 to 10 scale),surinam grass; [2],0
same,B. signalgrass plant response rating,surinam grass; [3],1
same,"Plant response rating, B. signalgrass",surinam grass; [4],6
same,B. signalgrass plant response rating,surinam grass; [5],0
same,B. signalgrass plant response rating,"surinam grass; Rate 125 g/ha, Postemergence, scale 0 (no effect) to 10 (complete control)",0
same,"Plant response rating, B. signalgrass","surinam grass; Rate 250 g/ha, Postemergence, scale 0 to 10, 0 is no effect, 10 is complete control",0
same,B. signalgrass plant response rating,"surinam grass; Rate 500 g/ha, Postemergence, scale 0 to 10, 0 no effect, 10 complete control",1
same,Cocklebur plant response rating,cocklebur; [1],0
same,Cocklebur plant response rating (0 to 10 scale),cocklebur; [2],0
same,Cocklebur plant response rating,cocklebur; [3],0
same,"Plant response rating, Cocklebur",cocklebur; [4],0
same,Cocklebur plant response rating,cocklebur; [5],0
same,Cocklebur plant response rating,cocklebur; [6],2
same,"Plant response rating (0 to 10; 0 is no effect, 10 is complete control), Cocklebur","cocklebur; Rate 250 g/ha, Postemergence",2
same,Cocklebur plant response rating,cocklebur; [7],2
same,Corn plant response rating,corn; [1],0
same,Corn plant response rating (0 to 10 scale),corn; [2],0
same,Corn plant response rating,corn; [3],0
same,"Plant response rating, Corn",corn; [4],0
same,Corn plant response rating,corn; [5],0
same,Corn plant response rating,corn; [6],0
same,"Plant response rating (0 to 10; 0 is no effect, 10 is complete control), Corn","corn; Rate 250 g/ha, Postemergence",0
same,Corn plant response rating,corn; [7],0
same,Giant foxtail plant response rating,giant foxtail; [1],3
same,Giant foxtail plant response rating (0 to 10 scale),giant foxtail; [2],3
same,Giant foxtail plant response rating,giant foxtail; [3],8
same,"Plant response rating, Giant foxtail",giant foxtail; [4],10
same,Giant foxtail plant response rating,giant foxtail; [5],0
same,Giant foxtail plant response rating,giant foxtail; [6],0
same,"Plant response rating (0 to 10; 0 is no effect, 10 is complete control), Giant foxtail","giant foxtail; Rate 250 g/ha, Postemergence",1
same,Giant foxtail plant response rating,giant foxtail; [7],3
same,Morningglory plant response rating,morningglory; [1],0
same,Morningglory plant response rating (0 to 10 scale),morningglory; [2],0
same,Morningglory plant response rating,morningglory; [3],0
same,"Plant response rating, Morningglory",morningglory; [4],0
same,Morningglory plant response rating,morningglory; [5],0
same,Morningglory plant response rating,morningglory; [6],0
same,"Plant response rating (0 to 10; 0 is no effect, 10 is complete control), Morningglory","morningglory; Rate 250 g/ha, Postemergence",1
same,Morningglory plant response rating,morningglory; [7],3
same,Redroot pigweed plant response rating,pigweed; [1],0
same,Redroot pigweed plant response rating (0 to 10 scale),pigweed; [2],0
same,Redroot pigweed plant response rating,pigweed; [3],0
same,"Plant response rating, Redroot pigweed",pigweed; [4],0
same,Redroot pigweed plant response rating,pigweed; [5],0
same,Redroot pigweed plant response rating,pigweed; [6],0
same,"Plant response rating (0 to 10; 0 is no effect, 10 is complete control), Redroot pigweed","pigweed; Rate 250 g/ha, Postemergence",2
same,Redroot pigweed plant response rating,pigweed; [7],4
same,Rape plant response rating,rape; [1],0
same,Rape plant response rating (0 to 10 scale),rape; [2],0
same,Rape plant response rating,rape; [3],0
same,"Plant response rating, Rape",rape; [4],0
same,Rape plant response rating,rape; [5],0
same,Rape plant response rating,rape; [6],0
same,"Plant response rating (0 to 10; 0 is no effect, 10 is complete control), Rape","rape; Rate 250 g/ha, Postemergence",0
same,Rape plant response rating,rape; [7],0
same,Soybean plant response rating,soybean; [1],0
same,Soybean plant response rating (0 to 10 scale),soybean; [2],0
same,Soybean plant response rating,soybean; [3],0
same,"Plant response rating, Soybean",soybean; [4],0
same,Soybean plant response rating,soybean; [5],2
same,Soybean plant response rating,soybean; [6],3
same,"Plant response rating (0 to 10; 0 is no effect, 10 is complete control), Soybean","soybean; Rate 250 g/ha, Postemergence",4
same,Soybean plant response rating,soybean; [7],5
same,Sugarbeets plant response rating,sugar beet; [1],0
same,Sugarbeets plant response rating (0 to 10 scale),sugar beet; [2],0
same,Sugarbeets plant response rating,sugar beet; [3],0
same,"Plant response rating, Sugarbeets",sugar beet; [4],2
same,Sugarbeets plant response rating,sugar beet; [5],0
same,Sugarbeets plant response rating,sugar beet; [6],0
same,"Plant response rating (0 to 10; 0 is no effect, 10 is complete control), Sugarbeets","sugar beet; Rate 250 g/ha, Postemergence",0
same,Sugarbeets plant response rating,sugar beet; [7],2
same,Velvetleaf plant response rating,velvetleaf; [1],0
same,Velvetleaf plant response rating,velvetleaf; [3],0
same,"Plant response rating, Velvetleaf",velvetleaf; [4],0
same,Velvetleaf plant response rating,velvetleaf; [5],0
same,Velvetleaf plant response rating,velvetleaf; [6],0
same,"Plant response rating (0 to 10; 0 is no effect, 10 is complete control), Velvetleaf","velvetleaf; Rate 250 g/ha, Postemergence",2
same,Wheat plant response rating,wheat; [1],0
same,Wheat plant response rating,wheat; [3],0
same,"Plant response rating, Wheat",wheat; [4],0
same,Wheat plant response rating,wheat; [5],0
same,Wheat plant response rating,wheat; [6],0
same,"Plant response rating (0 to 10; 0 is no effect, 10 is complete control), Wheat","wheat; Rate 250 g/ha, Postemergence",0
same,Wild oats plant response rating,wild oat; [1],0
same,Wild oats plant response rating,wild oat; [3],0
same,"Plant response rating, Wild oats",wild oat; [4],4
same,Wild oats plant response rating,wild oat; [5],0
same,Wild oats plant response rating,wild oat; [6],0
same,"Plant response rating (0 to 10; 0 is no effect, 10 is complete control), Wild oats","wild oat; Rate 250 g/ha, Postemergence",0
same,Rice plant response rating,rice; [8],0
same,Rice plant response rating,rice; [9],0
same,Rice plant response rating,rice; [10],0
same,"Plant response rating, Rice","rice; Rate 500 g/ha, headed Pre-emergence (flood test species), scale 0 to 10 (0 no effect, 10 complete control)",0
same,S. Flatsedge plant response rating,smallflower flatsedge; [8],0
same,S. Flatsedge plant response rating,smallflower flatsedge; [9],0
same,S. Flatsedge plant response rating,smallflower flatsedge; [10],0
same,S. Flatsedge plant response rating,"smallflower flatsedge; Rate 500 g/ha, Pre-emergence, flood test species, scale 0 to 10 (0 no effect, 10 complete control)",0
